Data taken from ChEMBL document CHEMBL5131424, “Synthesis and evaluation of antibacterial and trypanocidal activity of derivatives of monensin A” (Bioorg Med Chem Lett, 2022).
≈ marks a conversion by molar mass, not a printed value.

How the values were obtained:
[1] = test system: Staphylococcus epidermidis; test: Antibacterial activity against Staphylococcus epidermidis 825/19; assay type: functional
[2] = test system: Staphylococcus epidermidis; test: Antibacterial activity against Staphylococcus epidermidis 851/19; assay type: functional
[3] = test system: Staphylococcus epidermidis; test: Antibacterial activity against Staphylococcus epidermidis 829/19; assay type: functional
Pseudomonas aeruginosa [4] = test: Antibacterial activity against Pseudomonas aeruginosa ATCC 15442; assay type: functional
Staphylococcus aureus [5] = test: Antibacterial activity against Staphylococcus aureus ATCC 25923; assay type: functional
Staphylococcus aureus [6] = test: Antibacterial activity against Staphylococcus aureus ATCC 29213; assay type: functional
[7] = test system: Staphylococcus epidermidis; test: Antibacterial activity against Staphylococcus epidermidis 848/19; assay type: functional
Staphylococcus aureus [8] = test: Antibacterial activity against Staphylococcus aureus ATCC 6538; assay type: functional
[9] = test system: Staphylococcus epidermidis; test: Antibacterial activity against Staphylococcus epidermidis ATCC 12228; assay type: functional
[10] = test system: Staphylococcus epidermidis; test: Antibacterial activity against Staphylococcus epidermidis 845/19; assay type: functional
[11] = test system: Staphylococcus epidermidis; test: Antibacterial activity against Staphylococcus epidermidis 840/19; assay type: functional
Trypanosoma brucei = test: Antitrypanosomal activity against bloodstream form of Trypanosoma brucei clone 427-221a measured after 24 hrs by resazurin dye based assay; assay type: functional
[12] = test system: Staphylococcus epidermidis; test: Antibacterial activity against Staphylococcus epidermidis ATCC 35984; assay type: functional
[13] = Selectivity ratio of GI50 for cytotoxicity against human HL-60 cells to GI50 for antitrypanosomal activity against bloodstream form of Trypanosoma brucei clone 427-221a; assay type: toxicity, cell-based; conditions: read-out: RatioGI50
[14] = (§1) Cytotoxicity against human HL-60 cells assessed as reduction in cell viability measured after 24 hrs by resazurin dye based assay; assay type: toxicity; conditions: HL-60 cells
HL-60 = test: as §1; assay type: toxicity; conditions: hl-60, 24 h
[15] = Selectivity ratio of MIC for cytotoxicity against human HL-60 cells to MIC for antitrypanosomal activity against bloodstream form of Trypanosoma brucei clone 427-221a; assay type: toxicity, cell-based
Escherichia coli [16] = test: Antibacterial activity against Escherichia coli ATCC 25922; assay type: functional
Pseudomonas aeruginosa [17] = test: Antibacterial activity against Pseudomonas aeruginosa […]; assay type: functional
[18] = test system: Staphylococcus epidermidis; test: Antibacterial activity against Staphylococcus epidermidis 830/19; assay type: functional
[19] = test system: Staphylococcus epidermidis; test: Antibacterial activity against Staphylococcus epidermidis 834/19; assay type: functional
Escherichia coli [20] = test: Antibacterial activity against Escherichia coli NCTC 10538; assay type: functional
Staphylococcus aureus [21] = test: Antibacterial activity against Staphylococcus aureus NCTC 4163; assay type: functional

Row | Compound | MIC [1] [µg/mL] | MIC [2] [µg/mL] | MIC [3] [µg/mL] | MIC (Pseudomonas aeruginosa [4]) [µg/mL] | MIC (Staphylococcus aureus [5]) [µg/mL] | MIC [7] [µg/mL] | MIC [9] [µg/mL] | MIC [10] [µg/mL] | MIC [11] [µg/mL] | GI50 (Trypanosoma brucei) [nM] | MIC (Trypanosoma brucei) [µM] | MIC [12] [µg/mL] | selectivity ratio [13] | GI50 at 24 h [14] [nM] | MIC (HL-60) [µM] | selectivity ratio [15] | MIC (Pseudomonas aeruginosa [17]) [µg/mL] | MIC [18] [µg/mL] | MIC [19] [µg/mL] | MIC (Staphylococcus aureus [21]) [µg/mL] | further results
1 | CCCNC(=O)OC[C@]1(O)O[C@H]([C@H]2C[C@H](C)[C@H]([C@]3(CO)CC[C@H]([C@]4(C)CC[C@]5(C[C@H](O)[C@@H](C)[C@@H]([C@@H](C)[C@@H](OC)[C@H](C)C(=O)O)O5)O4)O3)O2)[C@@H](C)C[C@H]1C | 2 (≈ 2.64 µM) | 4 (≈ 5.28 µM) | 4 (≈ 5.28 µM) | > 256 | 2 (≈ 2.64 µM) | 4 (≈ 5.28 µM) | 4 (≈ 5.28 µM) | 4 (≈ 5.28 µM) | 4 (≈ 5.28 µM) | 2940 | 10 (≈ 7.58 µg/mL) | 8 (≈ 10.6 µM) | 8.3 | 24500 | 100 (≈ 75.8 µg/mL) | 10 | > 256 | 4 (≈ 5.28 µM) | 4 (≈ 5.28 µM) | 2 (≈ 2.64 µM) | MIC (Staphylococcus aureus [6]): 4 µg/mL (≈ 5.28 µM); MIC (Staphylococcus aureus [8]): 2 µg/mL (≈ 2.64 µM); MIC (Escherichia coli [16]): > 256 µg/mL; MIC (Escherichia coli [20]): > 256 µg/mL
2 | CO[C@H]([C@H](C)[C@H]1O[C@@]2(CC[C@@](C)([C@H]3CC[C@@](CO)([C@@H]4O[C@@H]([C@H]5O[C@@](O)(COC(=O)NC(=O)CCl)[C@H](C)C[C@@H]5C)C[C@@H]4C)O3)O2)C[C@H](O)[C@H]1C)[C@H](C)C(=O)O | 8 (≈ 10.1 µM) | 16 (≈ 20.2 µM) | 16 (≈ 20.2 µM) | > 256 | 1 (≈ 1.26 µM) | 16 (≈ 20.2 µM) | 2 (≈ 2.52 µM) | 32 (≈ 40.4 µM) | 16 (≈ 20.2 µM) | 4.7 | 0.1 (≈ 0.0792 µg/mL) | 2 (≈ 2.52 µM) | 746 | 3510 | 10 (≈ 7.92 µg/mL) | 100 | > 256 | 16 (≈ 20.2 µM) | 8 (≈ 10.1 µM) | 2 (≈ 2.52 µM) | MIC (Staphylococcus aureus [6]): 2 µg/mL (≈ 2.52 µM); MIC (Staphylococcus aureus [8]): 2 µg/mL (≈ 2.52 µM); MIC (Escherichia coli [16]): > 256 µg/mL; MIC (Escherichia coli [20]): > 256 µg/mL
3 | CCCCCCCCCC(=O)OC[C@]1(O)O[C@H]([C@H]2C[C@H](C)[C@H]([C@]3(CO)CC[C@H]([C@]4(C)CC[C@]5(C[C@H](O)[C@@H](C)[C@@H]([C@@H](C)[C@@H](OC)[C@H](C)C(=O)O)O5)O4)O3)O2)[C@@H](C)C[C@H]1C | 1 (≈ 1.21 µM) | 2 (≈ 2.42 µM) | 2 (≈ 2.42 µM) | > 256 | 1 (≈ 1.21 µM) | 2 (≈ 2.42 µM) | 2 (≈ 2.42 µM) | 2 (≈ 2.42 µM) | 2 (≈ 2.42 µM) | 38 | 1 (≈ 0.827 µg/mL) | 2 (≈ 2.42 µM) | 263 | 10000 | 100 (≈ 82.7 µg/mL) | 100 | > 256 | 2 (≈ 2.42 µM) | 2 (≈ 2.42 µM) | 2 (≈ 2.42 µM) | MIC (Staphylococcus aureus [6]): 2 µg/mL (≈ 2.42 µM); MIC (Staphylococcus aureus [8]): 2 µg/mL (≈ 2.42 µM); MIC (Escherichia coli [16]): > 256 µg/mL; MIC (Escherichia coli [20]): > 256 µg/mL
4 | CCCCNC(=O)OC[C@]1(O)O[C@H]([C@H]2C[C@H](C)[C@H]([C@]3(CO)CC[C@H]([C@]4(C)CC[C@]5(C[C@H](O)[C@@H](C)[C@@H]([C@@H](C)[C@@H](OC)[C@H](C)C(=O)O)O5)O4)O3)O2)[C@@H](C)C[C@H]1C | 1 (≈ 1.3 µM) | 2 (≈ 2.59 µM) | 1 (≈ 1.3 µM) | > 256 | 1 (≈ 1.3 µM) | 2 (≈ 2.59 µM) | 1 (≈ 1.3 µM) | 2 (≈ 2.59 µM) | 2 (≈ 2.59 µM) | 470 | 10 (≈ 7.72 µg/mL) | 1 (≈ 1.3 µM) | 24.3 | 11400 | 100 (≈ 77.2 µg/mL) | 19 | > 256 | 1 (≈ 1.3 µM) | 2 (≈ 2.59 µM) | 1 (≈ 1.3 µM) | MIC (Staphylococcus aureus [6]): 2 µg/mL (≈ 2.59 µM); MIC (Staphylococcus aureus [8]): 1 µg/mL (≈ 1.3 µM); MIC (Escherichia coli [16]): > 256 µg/mL; MIC (Escherichia coli [20]): > 256 µg/mL
5 | O=C(O)c1cn(C2CC2)c2cc(N3CCNCC3)c(F)cc2c1=O [CIPROFLOXACIN] | 4 (≈ 12.1 µM) | ≤ 0.125 | ≤ 0.125 | < 0.125 | 0.5 (≈ 1.51 µM) | ≤ 0.125 | 0.5 (≈ 1.51 µM) | 16 (≈ 48.3 µM) | ≤ 0.125 | – | – | 0.25 (≈ 0.754 µM) | – | – | – | – | < 0.125 | 64 (≈ 193 µM) | ≤ 0.125 | 0.25 (≈ 0.754 µM) | –
6 | Cc1ccc(C(=O)Nc2ccc(S(=O)(=O)O)c3cc(S(=O)(=O)O)cc(S(=O)(=O)O)c23)cc1NC(=O)c1cccc(NC(=O)Nc2cccc(C(=O)Nc3cc(C(=O)Nc4ccc(S(=O)(=O)O)c5cc(S(=O)(=O)O)cc(S(=O)(=O)O)c45)ccc3C)c2)c1 [SURAMIN] | – | – | – | – | – | – | – | – | – | 50 | 1 (≈ 1.3 µg/mL) | – | > 2000 | > 100000 | > 100 | > 100 | – | – | – | – | –
